Measurements reported in patent US6737383B1, “Herbicidal oxadiazolidines” (priority 1999, dated 2004).

Tests used:
velvetleaf = assay: Test B pre/postemergence velvetleaf; format: in vivo, Abutilon theophrasti
Summary of the method: (§1)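 Test chemicals in a non-phytotoxic solvent mixture with surfactant were sprayed preemergence onto planted seeds and postemergence onto plants 2 to 18 cm tall (1- to 4-leaf stage). After twelve to sixteen days in a greenhouse, injury was visually rated against untreated controls from 0 (no effect) to 10 (complete control).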

surinam grass = assay: Test B pre/postemergence surinam grass; format: in vivo, Brachiaria decumbens
Summary of the method: as §1

smallflower flatsedge = assay: Test B flood test smallflower flatsedge; format: in vivo, Cyperus difformis
Summary of the method: (§2)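 Plants were grown to the 2-leaf stage before treatment with test chemical, then held in a greenhouse for twelve to sixteen days. Injury was visually rated against untreated controls on a 0–10 scale, where 0 is no effect and 10 is complete control.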

wheat = assay: Test B pre/postemergence wheat; format: in vivo, Triticum aestivum
Summary of the method: as §1

rice = assay: Test B flood test rice; format: in vivo, Oryza sativa
Summary of the method: as §2

wild oat = assay: Test B pre/postemergence wild oat; format: in vivo, Avena fatua
Summary of the method: as §1

crabgrass = assay: Test B pre/postemergence crabgrass; format: in vivo, Digitaria sanguinalis
Summary of the method: as §1

corn = assay: Test B pre/postemergence corn; format: in vivo, Zea mays
Summary of the method: as §1

duck salad = assay: Test B flood test duck salad; format: in vivo, Heteranthera limosa
Summary of the method: as §2

sugar beet = assay: Test B pre/postemergence sugar beet; format: in vivo, Beta vulgaris
Summary of the method: as §1

giant foxtail = assay: Test B pre/postemergence giant foxtail; format: in vivo, Setaria faberii
Summary of the method: as §1

rape = assay: Test B pre/postemergence rape; format: in vivo, Brassica napus
Summary of the method: as §1

bedstraw = assay: Test B pre/postemergence bedstraw; format: in vivo, Galium aparine
Summary of the method: as §1

blackgrass = assay: Test B pre/postemergence blackgrass; format: in vivo, Alopecurus myosuroides
Summary of the method: as §1

bamyardgrass = assay: Test B flood test barnyardgrass; format: in vivo, Echinochloa crus-galli
Summary of the method: as §2

purple nutsedge = assay: Test B pre/postemergence purple nutsedge; format: in vivo, Cyperus rotundus
Summary of the method: as §1

[1] = Postemergence, Rate 62 g/ha, scale 0 to 10, 0 is no effect, 10 is complete control
[2] = Postemergence, Rate 250 g/ha, scale 0 to 10, 0 no effect, 10 complete control
[3] = Preemergence, Rate 62 g/ha, scale 0 to 10 (0 no effect, 10 complete control)
[4] = Preemergence, Rate 125 g/ha, scale 0 to 10 (0 no effect, 10 complete control)
[5] = Preemergence, Rate 250 g/ha, scale of 0 to 10 where 0 is no effect and 10 is complete control
[6] = Preemergence, Rate 500 g/ha, scale 0 (no effect) to 10 (complete control)
[7] = Rate 125 g/ha, Postemergence, scale 0 to 10, 0 no effect, 10 complete control
[8] = Rate 500 g/ha, Postemergence, scale 0 to 10, 0 no effect, 10 complete control
[9] = Rate 125 g/ha, Postemergence section (flood test species), scale 0 to 10, 0 no effect, 10 complete control
[10] = Rate 500 g/ha, listed under Postemergence (flood test species), scale 0 to 10, 0 no effect, 10 complete control
[11] = flood test, listed under Postemergence, Rate 250 g/ha, scale 0 to 10, 0 no effect, 10 complete control

SMILES: COc1cccc(C)c1-n1c(=O)on(C(=O)N(c2ccc(F)cc2)C(C)C)c1=O [Compound 62]
- Velvetleaf plant response rating (velvetleaf; [1]): 0
- Velvetleaf plant response rating (velvetleaf; [2]): 2
- Velvetleaf plant response rating (velvetleaf; [3]): 0
- Plant response rating, Velvetleaf (velvetleaf; [4]): 0
- Plant response rating, Velvetleaf (velvetleaf; [5]): 0
- Velvetleaf plant response rating (velvetleaf; [6]): 0
- Velvetleaf plant response rating (velvetleaf; [7]): 0
- Velvetleaf plant response rating (velvetleaf; [8]): 7
- B. signalgrass plant response rating (surinam grass; [1]): 0
- B. signalgrass plant response rating (surinam grass; [2]): 2
- B. signalgrass plant response rating (surinam grass; [3]): 0
- Plant response rating, B. signalgrass (surinam grass; [4]): 0
- Plant response rating, B. signalgrass (surinam grass; [5]): 0
- B. signalgrass plant response rating (surinam grass; [6]): 0
- B. signalgrass plant response rating (surinam grass; [7]): 0
- B. signalgrass plant response rating (surinam grass; Rate 500 g/ha, Postemergence, scale of 0 to 10 where 0 is no effect and 10 is complete control): 4
- S. Flatsedge plant response rating (smallflower flatsedge; [1]): 0
- S. Flatsedge plant response rating (smallflower flatsedge; [9]): 0
- S. Flatsedge plant response rating (smallflower flatsedge; [10]): 0
- S. Flatsedge plant response rating (smallflower flatsedge; [11]): 0
- Wheat plant response rating (wheat; [1]): 0
- Wheat plant response rating (wheat; [2]): 0
- Wheat plant response rating (wheat; [3]): 0
- Plant response rating, Wheat (wheat; [4]): 0
- Plant response rating, Wheat (wheat; [5]): 0
- Wheat plant response rating (wheat; [6]): 0
- Wheat plant response rating (wheat; [7]): 0
- Wheat plant response rating (wheat; [8]): 0
- Rice plant response rating (rice; [1]): 0
- Rice plant response rating (rice; [9]): 0
- Rice plant response rating (rice; [10]): 0
- Rice plant response rating (rice; [11]): 0
- Wild oats plant response rating (wild oat; [1]): 0
- Wild oats plant response rating (wild oat; [2]): 3
- Wild oats plant response rating (wild oat; [3]): 0
- Plant response rating, Wild oats (wild oat; [4]): 0
- Plant response rating, Wild oats (wild oat; [5]): 0
- Wild oats plant response rating (wild oat; [6]): 0
- Wild oats plant response rating (wild oat; [7]): 0
- Wild oats plant response rating (wild oat; [8]): 3
- Crabgrass plant response rating (crabgrass; [1]): 0
- Crabgrass plant response rating (crabgrass; [2]): 0
- Crabgrass plant response rating (crabgrass; [3]): 2
- Plant response rating, Crabgrass (crabgrass; [4]): 3
- Plant response rating, Crabgrass (crabgrass; [5]): 6
- Crabgrass plant response rating (crabgrass; [6]): 9
- Crabgrass plant response rating (crabgrass; [7]): 0
- Crabgrass plant response rating (crabgrass; [8]): 7
- Corn plant response rating (corn; [1]): 0
- Corn plant response rating (corn; [2]): 0
- Corn plant response rating (corn; [3]): 0
- Plant response rating, Corn (corn; [4]): 0
- Plant response rating, Corn (corn; [5]): 0
- Corn plant response rating (corn; [6]): 0
- Corn plant response rating (corn; [7]): 0
- Corn plant response rating (corn; [8]): 0
- Ducksalad plant response rating (duck salad; [1]): 0
- Ducksalad plant response rating (duck salad; [9]): 0
- Ducksalad plant response rating (duck salad; [10]): 0
- Ducksalad plant response rating (duck salad; [11]): 0
- Sugarbeets plant response rating (sugar beet; [1]): 0
- Sugarbeets plant response rating (sugar beet; [2]): 0
- Sugarbeets plant response rating (sugar beet; [3]): 0
- Plant response rating, Sugarbeets (sugar beet; [4]): 0
- Plant response rating, Sugarbeets (sugar beet; [5]): 0
- Sugarbeets plant response rating (sugar beet; [6]): 0
- Sugarbeets plant response rating (sugar beet; [7]): 0
- Sugarbeets plant response rating (sugar beet; [8]): 5
- Giant foxtail plant response rating (giant foxtail; [1]): 0
- Giant foxtail plant response rating (giant foxtail; [2]): 0
- Giant foxtail plant response rating (giant foxtail; [3]): 5
- Plant response rating, Giant foxtail (giant foxtail; [4]): 5
- Plant response rating, Giant foxtail (giant foxtail; [5]): 9
- Giant foxtail plant response rating (giant foxtail; [6]): 10
- Giant foxtail plant response rating (giant foxtail; [7]): 0
- Giant foxtail plant response rating (giant foxtail; [8]): 2
- Rape plant response rating (rape; [1]): 0
- Rape plant response rating (rape; [2]): 0
- Rape plant response rating (rape; [3]): 0
- Plant response rating, Rape (rape; [4]): 0
- Plant response rating, Rape (rape; [5]): 0
- Rape plant response rating (rape; [6]): 0
- Rape plant response rating (rape; [7]): 0
- Rape plant response rating (rape; [8]): 0
- Bedstraw plant response rating (bedstraw; [1]): 0
- Bedstraw plant response rating (bedstraw; [2]): 2
- Bedstraw plant response rating (bedstraw; [3]): 0
- Plant response rating, Bedstraw (bedstraw; [4]): 0
- Plant response rating, Bedstraw (bedstraw; [5]): 0
- Bedstraw plant response rating (bedstraw; [6]): 4
- Bedstraw plant response rating (bedstraw; [7]): 0
- Blackgrass plant response rating (blackgrass; [1]): 0
- Blackgrass plant response rating (blackgrass; [2]): 0
- Blackgrass plant response rating (blackgrass; [3]): 0
- Plant response rating, Blackgrass (blackgrass; [4]): 0
- Plant response rating, Blackgrass (blackgrass; [5]): 2
- Blackgrass plant response rating (blackgrass; [6]): 4
- Blackgrass plant response rating (blackgrass; [7]): 0
- Blackgrass plant response rating (blackgrass; [8]): 2
- Barnyardgrass plant response rating (bamyardgrass; [1]): 0
- Barnyardgrass plant response rating (bamyardgrass; [9]): 0
- Barnyardgrass plant response rating (bamyardgrass; [10]): 0
- Barnyardgrass plant response rating (bamyardgrass; [11]): 0
- Nutsedge plant response rating (purple nutsedge; [1]): 0
- Nutsedge plant response rating (purple nutsedge; [2]): 0
- Nutsedge plant response rating (purple nutsedge; [3]): 0
- Plant response rating, Nutsedge (purple nutsedge; [4]): 0
- Plant response rating, Nutsedge (purple nutsedge; [5]): 0
- Nutsedge plant response rating (purple nutsedge; [6]): 0
- Nutsedge plant response rating (purple nutsedge; [7]): 0
- Nutsedge plant response rating (purple nutsedge; [8]): 3
